Experimental data: US7786257B2, “Signal-1/signal-2 bifunctional peptide inhibitors” (priority 2000, dated 2010)

Experiments:
[1] = test system: live APC (spleenocytes) from NOD (I-A^g7), BALB/c, A.SW, A.BY mice; test: Flow cytometry of biotinylated peptide binding to live APC (spleenocytes) of inbred mouse strains; settings: biotinylated peptide, live spleenocytes, flow cytometry
Method: Specifically, it was verified that the peptide binds to MHC molecules on live APC. Briefly, spleen cell density-gradient fractions (from mice), or PBL, or APC lines (from humans) were incubated in round bottom 96-well plates with increasing concentrations of individual biotinylated peptides at 37° C., 5% CO2 for 16 hours. Following binding of the BPI to the APC, Avidin-FITC was incubated with the cells on ice for 30 minutes, followed by biotinylated anti-Avidin for 1 hour, then again with Avidin-FITC. For BPI titrations, increasing concentrations (0.1-100 μM) of the biotinylated derivatives in sterile 0.5% BSA-PBS were incubated with the APC for 16 hours as above. […] Three-color analyses used Cy-Chrome or PE-conjugated antibodies to known surface markers of APC that were commercially available. Avidin-FITC and biotinylated anti-Avidin detection of the bound peptide was as previously described in Murray et al., 24 Eur. J. Immunol. 2337-2344 (1994); Murray; 19 Immunology Today 157-163; and Schountz et al., 157 The Journal of Immunology 3893-3901 (1996). Slight modifications of this method were used to test peptide inhibition (i.e., peptide affinity) and co-capping to the MHC and ICAM molecules directly on the live APC surface. […] Unlabeled peptide was used in a competition assay to derive the relative affinity of the BPI for the APC and the ability of the BPI to crosslink the MHC and ICAM molecules on the APC was examined by cocapping ICAM with an anti-MHC mAb. Here, cells were incubated with the BPI. Next, an anti-MHC mAb was added. After 30 minutes at 37° C., the cells were transferred to ice and stained with PE-labeled anti-ICAM (FIG. 7).
To obtain biotinylated BPI, the synthesized EGAD BPI was biotinylated with NHS-Biotin as described in Murray et al., 24 Eur. J. Immunol. 2337-2344 (1994). Spleen cell density-gradient fractions from normal (unimmunized) NOD, BALB/c and other MHC congenic strains were incubated in round bottom 96-well plates with increasing concentrations of individual biotinylated peptides at 37° C., 5% CO2 for 16 hours. Following binding of the BPI to the APC, Avidin-FITC was incubated with the cells on ice for 30 minutes, followed bybiotinylated anti-Avidin for 1 hour, then again with Avidin-FITC. For BPI titrations, increasing concentrations (0.1-100 μM) of the biotinylated derivatives in sterile 0.5% BSA-PBS were incubated with the APC for 16 hours as above. Three-color analyses used Cy-Chrome or PE-conjugated anti-B220 (mAb RA3-6B2 (CD45R B-cell marker), anti-MHC class II (KH74 or 10-3.62 mAb), or anti-ICAM-1 (3E2 mAb); (all purchased from PharMingen, San Diego, Calif.). Bound peptide was detected with avidin-FITC/biotinylated anti-avidin/avidin-FITC on live cells gated by forward/side scatter analysis. Controls contained all detecting reagents in absence of the biotinylated peptide; 20,000 events were analyzed for each histogram with a FACScan (Becton-Dickinson) flow cytometer.
To verify antigenic peptide binding to live APC, initial EGAD-BPI were screened for selective binding to NOD (I-A^g7) APC and assayed for simultaneous binding using monoclonal antibodies against either MHC-II or ICAM-1 by flow cytometry methods using live APC (Murray et al., 24 Eur. J. Immunol. 2337-2344 (1994); Murray; 19 Immunology Today 157-163; and Schountz et al., 157 The Journal of Immunology 3893-3901 (1996)). In this assay, increasing concentrations of the biotinylated-BPI, -CD11a(237-247) or -GAD65(208-217) peptide were incubated overnight with spleenocytes from each inbred strain. Bound peptide was detected with amplification of avidin-FITC fluorescence by the use of a biotinylated anti-avidin reagent, followed by a second round of avidin-FITC binding. Biotinylated peptide was incubated with 10^6 viable cells at a peptide concentrations of 50 μM. Bound peptide was detected with avidin-FITC/biotinylated anti-avidin-FITC. […]

NOD mice = test: Lymphocytic infiltration of pancreatic islets (insulitis) in NOD mice, histological scoring; type: in vivo, mouse; settings: NOD males; for intact / normal islets without infiltration (grade-0 islets), percentage of islets examined: GAD65 peptide in CFA, two i.v. injections of 40 nanomoles
Text: To evaluate the disease process by immunohistology (see, e.g., FIG. 12A-D), spleen, pancreas, or other target organs, e.g., the CNS for the MDP peptide BPI, or lung for the RSV peptide BPI, were removed from euthanized mice of each group and prepared for histology by fixing in neutral buffered formalin and embedding in paraffin, or snap frozen in O.C.T. medium. For scoring inflammation, minimums of five sections from each mouse were used to assess the blocking affect of a given BPI. For characterization of standard T-cell markers on cellular infiltrates, biotinylated mAb to various cell surface antigens will be incubated individually with the Cryostat sections (2 hours), followed by avidin-alkaline phosphatase (Vector laboratories). Alternatively, cell subsets will be phenotyped by standard flow cytometry methods as described in Murray et al., 24 Eur. J. Immunol. 2337-2344 (1994); Murray; 19 Immunology Today 157-163; and Schountz et al., 157 The Journal of Immunology 3893-3901 (1996). Finally, the students t-test or ANOVA will be used to estimate the statistical significance of differences observed between groups and individual mice.
These studies sought to confirm that the BPI containing the immunodominant GAD65 TCR epitope (EGAD-BPI) was biologically active in vivo and inhibited the development of pancreatic inflammation. Groups of three normal glycemic NOD males (8 weeks old) were immunized with the GAD65 (208-217) peptide in CFA as described in Example 4. The control group received PBS, and separate experimental groups received either the EGAD-BPI, the GAD peptide alone (i.e., the T-cell receptor epitope), or the CD11a peptide alone(i.e., the second signal receptor moiety) by two intravenous injections as described in Example 4. On day 10, the pancreata were removed to 10% PBS-buffered formalin, embedded in paraffin, and five-micron serial sections were examined histologically for mononuclear cell infiltration as previously described by Yoon, et al., Control of Autoimmune Diabetes in NOD Mice by GAD Expression or Suppression in β Cells, 284 Science 1183-1187 (1999), the entirety of which is hereby incorporated by reference.

Sequence	preferential binding to NOD APC compared with other strains (BALB/c, A.SW, A.BY) [1]	preferential binding to NOD APC compared with other strains (BALB/c, A.SW, A.BY) ([1]; listed as GAD 65 moiety)	intact / normal islets without infiltration (grade-0 islets), percentage of islets examined (NOD mice; day 10) [%]	mononuclear cell infiltration of islets (insulitis), in words (NOD mice; day 10, histology)	islets scored grade 2 or above (NOD mice; two i.v. injections, day 10) [%]	preferential binding to NOD APC compared with other strains (BALB/c, A.SW, A.BY) ([1]; listed as LFA-1 (CD11a 237-247) peptide)	preferential binding to NOD APC compared with other strains (BALB/c, A.SW, A.BY) ([1]; listed as LFA-1 moiety)
EIAPVFVLLE (listed as Homo sapiens) [GAD65 peptide, reference compound]	did not bind preferentially to NOD APC	did not display this increased binding	62	showed the most insulitis	37.5	–	–
ITDGEATDSG (listed as Homo sapiens) [CD11a peptide, Signal-2 moiety (second signal receptor moiety) of EGAD-BPI, tested alone as control]	did not bind preferentially to NOD APC	–	66.7	–	–	bound similarly to all strain spleenocytes	did not display this increased binding
